Assay results as given in patent US6248586A, “Antisense modulation of PKA catalytic subunit C-alpha expression” (Isis Pharmaceuticals, Inc., priority 1999, dated 2001).

Test system: human PKA catalytic subunit C-alpha mRNA
Test: Inhibition of PKA catalytic subunit C-alpha mRNA levels in oligonucleotide-treated cells, quantitative real-time PCR
Assay type: cell-based
Set-up: concentration or dose not given beside the values
Details: Table 2, chimeric phosphorothioate 2'-MOE gapmers, averaged from two experiments
Method: when cells reached 80% confluency, they were treated with oligonucleotide. For cells grown in 96-well plates, wells were washed once with 200 μL. OPTI-MEM™-1 reduced-serum medium (Gibco BRL) and then treated with 130 μL of OPTI-MEM™-1 containing 3.75 μg/mL LIPOFECTIN™ (Gibco BRL) and the desired concentration of oligonucleotide. After 4-7 hours of treatment, the medium was replaced with fresh medium. Cells were harvested 16-24 hours after oligonucleotide treatment.
Poly(A)+ mRNA was isolated according to Miura et al., Clin. Chem., 1996, 42, 1758-1764. Other methods for poly(A)+ mRNA isolation are taught in, for example, Ausubel, F. M. et al., Current Protocols in Molecular Biology, Volume 1, pp. 4.5.1-4.5.3, John Wiley & Sons, Inc., 1993. Briefly, for cells grown on 96-well plates, growth medium was removed from the cells and each well was washed with 200 μL cold PBS. 60 μL lysis buffer (10 mM Tris-HCl, pH 7.6, 1 mM EDTA, 0.5 M NaCl, 0.5% NP-40, 20 mM vanadyl-ribonucleoside complex) was added to each well, the plate was gently agitated and then incubated at room temperature for five minutes. 55 μL of lysate was transferred to Oligo d(T) coated 96-well plates (AGCT Inc., Irvine Calif.). Plates were incubated for 60 minutes at room temperature, washed 3 times with 200 μL of wash buffer (10 mM Tris-HCl pH 7.6, 1 mM EDTA, 0.3 M NaCl). After the final wash, the plate was blotted on paper towels to remove excess wash buffer and then air-dried for 5 minutes. 60 μL of elution buffer (5 mM Tris-HCl pH 7.6), preheated to 70° C. was added to each well, the plate was incubated on a 90° C. hot plate for 5 minutes, and the eluate was then transferred to a fresh 96-well plate.
Quantitat:ion of PKA catalytic subunit C-alpha mRNA levels was determined by real-time quantitative PCR using the ABI PRISM™ […] Sequence Detection System (PE-Applied Biosystems, Foster City, Calif.) according to manufacturer's instructions. This is a closed-tube, non-gel-based, fluorescence detection system which allows high-throughput quantitation of polymerase chain reaction (PCR) products in real-time. As opposed to standard PCR, in which amplification products are quantitated after the PCR is completed, products in real-time quantitative PCR are quantitated as they accumulate. This is accomplished by including in the PCR reaction an oligonucleotide probe that anneals specifically between the forward and reverse PCR primers, and contains two fluorescent dyes. A reporter dye (e.g., JOE, FAM, or VIC, obtained from either Operon Technologies Inc., Alameda, Calif. or PE-Applied Biosystems, Foster City, Calif.) is attached to the 5' end of the probe and a quencher dye (e.g., TAMRA, obtained from either Operon Technologies Inc., Alameda, Calif. or PE-Applied Biosystems, Foster City, Calif.) is attached to the 3' end of the probe. When the probe and dyes are intact, reporter dye emission is quenched by the proximity of the 3' quencher dye. During amplification, annealing of the probe to the target sequence creates a substrate that can be cleaved by the 5'-exonuclease activity of Taq polymerase. […] With each cycle, additional reporter dye molecules are cleaved from their respective probes, and the fluorescence intensity is monitored at regular intervals by laser optics built into the ABI PRISM™ 7700 Sequence Detection System. In each assay, a series of parallel reactions containing serial dilutions of mRNA from untreated control samples generates a standard curve that is used to quantitate the percent inhibition after antisense oligonucleotide treatment of test samples.
PCR reagents were obtained from PE-Applied Biosystems, Foster City, Calif. […]

In order of rising “% Inhibition of PKA catalytic subunit C-alpha mRNA levels” value:
1. 102703 (antisense GGCATGCCCCTAAAACTCAG; chemistry not given here) [compound 102703]  26%
2. 102672 (antisense GTTGTCCTTGAAGGAGAACT; chemistry not given here) [compound 102672]  28%
3. 102738 (antisense CAGGCAGCCCCTCCCCAGCA; chemistry not given here) [compound 102738]  31%
4. 102680 (antisense TAGATGAGATCCAGCGAGTG; chemistry not given here) [compound 102680]  33%
5. 102636 (antisense GGCGGCGTTGCCCATCGCGG; chemistry not given here) [compound 102636]  41%
6. 102700 (antisense CTTCCTCATAGTCGTCAAAG; chemistry not given here) [compound 102700]  44%
7. 102688 (antisense TCTGCGAAGAAGGGCGGGTA; chemistry not given here) [compound 102688]  52%
8. 102741 (antisense AGCACAAATGAGAAAGTGGG; chemistry not given here) [compound 102741]  53%
9. 102731 (antisense TGCAGGGATGCCCTCCCCAC; chemistry not given here) [compound 102731]  54%
10. 102653 (antisense ATTCTTTCACGCTCTCCTGC; chemistry not given here) [compound 102653]  55%
11. 102724 (antisense ACCCTCGCAGGATTGGCAGA; chemistry not given here) [compound 102724]  55%
12. 102720 (antisense GCTTCTCTTTAAAATGGATT; chemistry not given here) [compound 102720]  56%
13. 102711 (antisense TTGGCGCTTCGTTCATTTGC; chemistry not given here) [compound 102711]  60%
14. 102727 (antisense CGCTGCTGGGAGGAAAGACT; chemistry not given here) [compound 102727]  60%
15. 102684 (antisense GCGGCCCTTCACGCGCTTGG; chemistry not given here) [compound 102684]  63%
16. 102716 (antisense AAGCAACCCACTGAACATGT; chemistry not given here) [compound 102716]  63%
17. 102736 (antisense CCTTGAACCCCGGGCCGTGG; chemistry not given here) [compound 102736]  65%
18. 102750 (antisense TAGTTTTCAAATATGTTTAC; chemistry not given here) [compound 102750]  66%
19. 102692 (antisense TCCTTCAAGTCAGAGCTGAA; chemistry not given here) [compound 102692]  67%
20. 102619 (antisense TGCCCATCGCGGCGGCGGCG; chemistry not given here) [compound 102619]  70%
21. 102696 (antisense AAACCACTTGTGGTTCTTGA; chemistry not given here) [compound 102696]  71%
22. 102657 (antisense CAAACTGATCCAAGTGGGCT; chemistry not given here) [compound 102657]  73%
23. 102707 (antisense GGAGCAGCTGGTGTTTCTGT; chemistry not given here) [compound 102707]  73%
24. 102664 (antisense CTTCTGTTTGTCGAGGATCT; chemistry not given here) [compound 102664]  76%
25. 102668 (antisense GCTTGCAGGATGCGCTTTTC; chemistry not given here) [compound 102668]  76%
26. 102614 (antisense CCCATCGCGGCGGCGGCGGC; chemistry not given here) [compound 102614]  77%
27. 102744 (antisense TGGCTCCCCAGCGGCTCCCC; chemistry not given here) [compound 102744]  77%
28. 102629 (antisense GCGTTGCCCATCGCGGCGGC; chemistry not given here) [compound 102629]  79%
29. 102624 (antisense GTTGCCCATCGCGGCGGCGG; chemistry not given here) [compound 102624]  81%
30. 102633 (antisense CGGCGTTGCCCATCGCGGCG; chemistry not given here) [compound 102633]  81%
31. 102747 (antisense CACACAGGTTGAATCGCCCC; chemistry not given here) [compound 102747]  81%
32. 102660 (antisense CCAGCATCACCCGCCCGAAG; chemistry not given here) [compound 102660]  82%
33. 102645 (antisense CGGCGGCGGCGTTGCCCATC; chemistry not given here) [compound 102645]  84%
34. 102649 (antisense GGCGGCGGCGGCGTTGCCCA; chemistry not given here) [compound 102649]  85%
35. 102640 (antisense GCGGCGGCGTTGCCCATCGC; chemistry not given here) [compound 102640]  87%
36. 102676 (antisense GAACATCTCCCCGCCGGGCA; chemistry not given here) [compound 102676]  92%
